Assay results published in article PMC7539012, “Hyperphosphorylated tau aggregation and cytotoxicity modulators screen identified prescription drugs linked to Alzheimer's disease and cognitive functions” (Scientific Reports, 2020).
Structures can show the parent of a compound that is named as a salt. Where two headings read alike, the source gives them in different places.

Tested on: T1, 1N4R p-tau
T1 construct: made in house; host or cells: E. coli (PIMAX system)
Assay: p-tau aggregation modulator screen of 1280-compound library (ThS fluorescence net change over 16 h);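 as to ThS net change: 30 µM compound with 6 µM p-tau over 16 h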
Type: biochemical
Parameters: key to PTAI>2SD: *: PTAI>2SD

[1] = p-tau aggregation modulator screen of 1280-compound library, ThS fluorescence net change
[2] = 1280-compound library screen, ThS fluorescence net change over 16 h
[3] = p-tau aggregation modulator screen of the compound library, ThS fluorescence net change
[4] = library screen, ThS fluorescence net change over 16 h with p-tau
[5] = 1280-compound library screen, […]

O=c1c2ccccc2[se]n1-c1ccccc1 [Ebselen]
ThS net change [1]: 348

CC[C@]12CCCN3CCc4c(n(c5ccccc45)C(=O)C1)[C@@H]32 [Eburnamonine (-)]
ThS net change: 379

Clc1ccc(COC(Cn2ccnc2)c2ccc(Cl)cc2Cl)cc1 (stereo not shown) [Econazole nitrate]
ThS net change: 309

CC[N+](C)(C)c1cccc(O)c1 [Edrophonium chloride]
ThS net change [2]: 389

O=C1Nc2ccc(Cl)cc2[C@@](C#CC2CC2)(C(F)(F)F)O1 [Efavirenz]
ThS net change [3]: 436

CCOCCn1c(N2CCCN(C)CC2)nc2ccccc21 [Emedastine]
ThS net change [2]: 387

CCOC(=O)[C@H](CCc1ccccc1)N[C@@H](C)C(=O)N1CCC[C@H]1C(=O)O [Enalapril maleate]
ThS net change [3]: 2088

C[C@H](N[C@@H](CCc1ccccc1)C(=O)O)C(=O)N1CCC[C@H]1C(=O)O.O.O [Enalaprilat dihydrate]
ThS net change: 438

C=CCOC(Cn1ccnc1)c1ccc(Cl)cc1Cl (stereo not shown) [Enilconazole]
ThS net change [3]: 461

CCn1cc(C(=O)O)c(=O)c2cc(F)c(N3CCNCC3)nc21 [Enoxacin]
ThS net change [1]: 378

CCN1CCN(c2cc3c(cc2F)c(=O)c(C(=O)O)cn3C2CC2)CC1 [Enrofloxacin]
ThS net change [1]: 364

CCN(CC)C(=O)/C(C#N)=C/c1cc(O)c(O)c([N+](=O)[O-])c1 [Entacapone]
ThS net change [4]: 199

C[C@]12CC[C@H](O)C[C@@H]1CC[C@@H]1[C@@H]2CC[C@]2(C)C(=O)CC[C@@H]12 [Epiandrosterone]
ThS net change: 440

COc1cc(C)nc(-n2nc(C)cc2OC)n1 [Epirizole]
ThS net change [2]: 389

COc1cccc2c1C(=O)c1c(O)c3c(c(O)c1C2=O)C[C@@](O)(C(=O)CO)C[C@@H]3O[C@H]1C[C@H](N)[C@@H](O)[C@H](C)O1 [Epirubicin hydrochloride]
ThS net change: 315

C[C@]12C[C@H]3S[C@H]3C[C@@H]1CC[C@@H]1[C@@H]2CC[C@]2(C)[C@@H](O)CC[C@@H]12 [Epitiostanol]
ThS net change: 421

C[C@]12CC[C@H]3C(=CCc4cc(O)ccc43)[C@@H]1CCC2=O [Equilin]
ThS net change [5]: 389

C#Cc1cccc(Nc2ncnc3cc(OCCOC)c(OCCOC)cc23)c1 [Erlotinib]
ThS net change [2]: 387

CC[C@H]1OC(=O)[C@H](C)[C@@H](O[C@H]2C[C@@](C)(OC)[C@@H](O)[C@H](C)O2)[C@H](C)[C@@H](O[C@@H]2O[C@H](C)C[C@H](N(C)C)[C@H]2O)[C@](C)(O)C[C@@H](C)C(=O)[C@H](C)[C@@H](O)[C@]1(C)O [Erythromycin]
ThS net change [4]: 314

CN(C)CCC[C@@]1(c2ccc(F)cc2)OCc2cc(C#N)ccc21 [Escitalopram oxalate]
ThS net change [1]: 374

CNC(=O)Oc1ccc2c(c1)[C@]1(C)CCN(C)[C@@H]1N2C [Eserine hemisulfate salt]
ThS net change [5]: 395

COC(=O)CCc1ccc(OCC(O)CNC(C)C)cc1 (stereo not shown) [Esmolol hydrochloride]
ThS net change [2]: 400

CCCCC(=O)O[C@H]1CC[C@H]2[C@@H]3CCc4cc(O)ccc4[C@H]3CC[C@]12C [Estradiol Valerate]
ThS net change [3]: 417

C[C@]12CC[C@@H]3c4ccc(O)cc4CC[C@H]3[C@@H]1CC[C@@H]2O [Estradiol-17 beta]
ThS net change [2]: 384

C[C@]12CC[C@@H]3c4ccc(OC(=O)N(CCCl)CCCl)cc4CC[C@H]3[C@@H]1CC[C@@H]2O [Estramustine]
ThS net change [5]: 407

C[C@]12CC[C@@H]3c4ccc(O)cc4CC[C@H]3[C@@H]1C[C@@H](O)[C@@H]2O [Estriol]
ThS net change [3]: 440

C[C@]12CC[C@@H]3c4ccc(O)cc4CC[C@H]3[C@@H]1CCC2=O [Estrone]
ThS net change [1]: 344

C[C@]12CC[C@@H]3c4ccc(OS(=O)(=O)O)cc4CC[C@H]3[C@@H]1CCC2=O [Estropipate]
ThS net change [1]: 359

O=C(Cn1ccnc1[N+](=O)[O-])NCCO [Etanidazole]
ThS net change [3]: 461

C=C(CC)C(=O)c1ccc(OCC(=O)O)c(Cl)c1Cl [Ethacrynic acid]
ThS net change [2]: 412

CC[C@@H](CO)NCCN[C@@H](CC)CO [Ethambutol dihydrochloride]
ThS net change [1]: 344

CCN(CC)C(=O)c1ccc(O)c(OC)c1 [Ethamivan]
ThS net change [2]: 386

O=S(=O)(O)c1cc(O)ccc1O [Ethamsylate]
ThS net change [3]: 455

CCOc1ccc(Cc2nccc3cc(OCC)c(OCC)cc23)cc1OCC [Ethaverine hydrochloride]
ThS net change [3]: 439

C#C[C@]1(O)CC[C@H]2[C@@H]3CCc4cc(O)ccc4[C@H]3CC[C@@]21C [Ethinylestradiol]
ThS net change [3]: 451

CCc1cc(C(N)=S)ccn1 [Ethionamide]
ThS net change [1]: 360

C#C[C@]1(O)CC[C@H]2[C@@H]3CCC4=CC(=O)CC[C@]4(C)[C@H]3CC[C@@]21C [Ethisterone]
ThS net change: 490

CCN(CC)C(C)CN1c2ccccc2Sc2ccccc21 (stereo not shown) [Ethopropazine hydrochloride]
ThS net change [1]: 336

CCC1(C)CC(=O)NC1=O (stereo not shown) [Ethosuximide]
ThS net change [3]: 433

CCN1C(=O)NC(c2ccccc2)C1=O (stereo not shown) [Ethotoin]
ThS net change [2]: 394

CCOc1ccc2c(c1)C(C)=CC(C)(C)N2 [Ethoxyquin]
ThS net change [3]: 460

CCOc1ccc2nc(S(N)(=O)=O)sc2c1 [Ethoxzolamide]
ThS net change [3]: 428

C#C[C@]1(OC(C)=O)CC[C@H]2[C@@H]3CCC4=C[C@@H](OC(C)=O)CC[C@@H]4[C@H]3CC[C@@]21C [Ethynodiol diacetate]
ThS net change [1]: 355

C#C[C@]1(O)CC[C@H]2[C@@H]3CCc4cc(OC)ccc4[C@H]3CC[C@@]21C [Ethynylestradiol 3-methyl ether]
ThS net change [2]: 406

CC(O)(P(=O)([O-])O)P(=O)([O-])O.[Na+].[Na+] [Etidronic acid, disodium salt]
ThS net change [5]: 392

CCc1cccc(CC)c1NC(=O)CN(CC(=O)O)CC(=O)O [Etifenin]
ThS net change [3]: 414

CCNCC(O)c1cccc(O)c1 (stereo not shown) [Etilefrine hydrochloride]
ThS net change [2]: 407

CCc1cccc2c3c([nH]c12)C(CC)(CC(=O)O)OCC3 (stereo not shown) [Etodolac]
ThS net change [3]: 443

O=C(OCCOCCO)c1ccccc1Nc1cccc(C(F)(F)F)c1 [Etofenamate]
ThS net change [3]: 425

Cn1c(=O)c2c(ncn2CCO)n(C)c1=O [Etofylline]
ThS net change [3]: 422

CCOC(=O)c1cncn1[C@H](C)c1ccccc1 [Etomidate]
ThS net change: 447

COc1cc([C@@H]2c3cc4c(cc3[C@@H](O[C@@H]3O[C@@H]5CO[C@@H](C)O[C@H]5[C@H](O)[C@H]3O)[C@H]3COC(=O)[C@H]23)OCO4)cc(OC)c1O [Etoposide]
ThS net change [3]: 413

Cc1ccc(-c2ncc(Cl)cc2-c2ccc(S(C)(=O)=O)cc2)cn1 [Etoricoxib]
ThS net change [1]: 376

CCOC(=O)/C=C(C)/C=C/C=C(C)/C=C/c1c(C)cc(OC)c(C)c1C [Etretinate]
ThS net change [3]: 420

CC1CC(OC(=O)C(O)c2ccccc2)CC(C)(C)N1C (stereo not shown) [Eucatropine hydrochloride]
ThS net change [2]: 387

C=C1C[C@@H]2[C@H](CC[C@]3(C)C(=O)CC[C@@H]23)[C@@]2(C)C=CC(=O)C=C12 [Exemestane]
ThS net change [1]: 373

O=C1[C@H](CC[C@H](O)c2ccc(F)cc2)[C@@H](c2ccc(O)cc2)N1c1ccc(F)cc1 [Ezetimibe]
ThS net change [3]: 466

CC(=O)OCC(CCn1cnc2cnc(N)nc21)COC(C)=O [Famciclovir]
ThS net change [3]: 459

NC(N)=Nc1nc(CSCCC(N)=NS(N)(=O)=O)cs1 [Famotidine]
ThS net change [2]: 390

CC(C)c1c(CN(C)C(C)Cc2ccccc2)n(C)n(-c2ccccc2)c1=O (stereo not shown) [Famprofazone]
ThS net change: 477

NC(=O)OCC(COC(N)=O)c1ccccc1 [Felbamate]
ThS net change [3]: 439

O=C(O)Cc1ccc(-c2ccccc2)cc1 [Felbinac]
ThS net change [2]: 405

CCOC(=O)C1=C(C)NC(C)=C(C(=O)OC)C1c1cccc(Cl)c1Cl (stereo not shown) [Felodipine]
ThS net change [2]: 405

COC(=O)Nc1nc2ccc(Sc3ccccc3)cc2[nH]1 [Fenbendazole]
PTAI>2SD (flag: p-tau aggregation inhibitor, ThS net change more than 2 SD from mean): * | ThS net change [4]: 148

O=C(O)CCC(=O)c1ccc(-c2ccccc2)cc1 [Fenbufen]
ThS net change [1]: 368

CC(NCCC(c1ccccc1)c1ccccc1)c1ccccc1 (stereo not shown) [Fendiline hydrochloride]
ThS net change [1]: 335

CCCCC(O)c1ccccc1 (stereo not shown) [Fenipentol]
ThS net change [1]: 375

CC(C)OC(=O)C(C)(C)Oc1ccc(C(=O)c2ccc(Cl)cc2)cc1 [Fenofibrate]
ThS net change [3]: 531

Oc1ccc(C2CNCCc3c2cc(O)c(O)c3Cl)cc1 (stereo not shown) [Fenoldopam]
ThS net change [4]: 310

CC(C(=O)[O-])c1cccc(Oc2ccccc2)c1.CC(C(=O)[O-])c1cccc(Oc2ccccc2)c1.O.O.[Ca+2] (stereo not shown) [Fenoprofen calcium salt dihydrate]
ThS net change (p-tau aggregation modulator screen of 1280-compound library, […]): 366

CC(Cc1ccc(O)cc1)NCC(O)c1cc(O)cc(O)c1 (stereo not shown) [Fenoterol hydrobromide]
ThS net change [5]: 405

O=C1NCC2(CCN(CCc3ccccc3)CC2)O1 [Fenspiride hydrochloride]
ThS net change [1]: 362

O=C(O)Cc1sc(-c2ccccc2)nc1-c1ccc(Cl)cc1 [Fentiazac]
ThS net change [2]: 382

CC(C)(C(=O)O)c1ccc(C(O)CCCN2CCC(C(O)(c3ccccc3)c3ccccc3)CC2)cc1 (stereo not shown) [Fexofenadine HCl]
ThS net change [3]: 435

CC(C)(C)NC(=O)[C@H]1CC[C@H]2[C@@H]3CC[C@H]4NC(=O)C=C[C@]4(C)[C@H]3CC[C@]12C [Finasteride]
ThS net change [1]: 346

O=C(COc1ccc(Cl)cc1)N1CCN(Cc2ccc3c(c2)OCO3)CC1 [Fipexide hydrochloride]
ThS net change [1]: 359

Cc1c(-c2ccccc2)oc2c(C(=O)OCCN3CCCCC3)cccc2c1=O [Flavoxate hydrochloride]
ThS net change [1]: 359

O=C(NCC1CCCCN1)c1cc(OCC(F)(F)F)ccc1OCC(F)(F)F (stereo not shown) [Flecainide acetate]
ThS net change [1]: 354
